Patent US10106853B2, “CUL4B as predictive biomarker for cancer treatment” (CORNELL UNIVERSITY, priority 2012, dated 2018)

How the values were obtained:
CUL4B-Top1 interaction = target: T1, CUL4B-Top1 interaction (Homo sapiens, UniProt P11387); assay: Co-immunoprecipitation of CUL4B and Top1 in BT474 cells; format: cell-based; settings: BT474 cells in the presence of CPT, crosslinked
T1 construct: Top1 was co-immunoprecipitated with CUL4B in the presence of CPT; host or cells: BT474 human breast cancer cells
T1 sequence (P11387 2-765 limits assumed): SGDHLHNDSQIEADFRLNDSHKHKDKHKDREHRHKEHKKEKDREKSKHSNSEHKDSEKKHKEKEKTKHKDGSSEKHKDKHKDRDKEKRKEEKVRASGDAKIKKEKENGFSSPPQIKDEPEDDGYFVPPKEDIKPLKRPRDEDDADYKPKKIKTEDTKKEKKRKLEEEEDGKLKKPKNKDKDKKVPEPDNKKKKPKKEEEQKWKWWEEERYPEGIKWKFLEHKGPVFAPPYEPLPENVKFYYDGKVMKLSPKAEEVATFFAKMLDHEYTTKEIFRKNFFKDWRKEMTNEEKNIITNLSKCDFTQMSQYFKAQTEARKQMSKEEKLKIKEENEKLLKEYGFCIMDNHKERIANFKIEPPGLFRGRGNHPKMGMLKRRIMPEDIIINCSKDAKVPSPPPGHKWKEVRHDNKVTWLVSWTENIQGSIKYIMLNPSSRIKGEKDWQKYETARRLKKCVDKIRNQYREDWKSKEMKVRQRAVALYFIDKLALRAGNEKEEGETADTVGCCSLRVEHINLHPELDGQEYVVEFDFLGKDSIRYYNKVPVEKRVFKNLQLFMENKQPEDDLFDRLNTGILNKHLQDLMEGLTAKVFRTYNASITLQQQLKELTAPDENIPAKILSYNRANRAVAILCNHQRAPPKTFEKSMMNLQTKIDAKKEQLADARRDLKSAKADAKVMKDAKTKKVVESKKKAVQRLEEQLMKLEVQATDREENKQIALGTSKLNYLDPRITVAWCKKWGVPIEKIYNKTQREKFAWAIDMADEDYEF
T1 sequence (Q13620 whole entry partner): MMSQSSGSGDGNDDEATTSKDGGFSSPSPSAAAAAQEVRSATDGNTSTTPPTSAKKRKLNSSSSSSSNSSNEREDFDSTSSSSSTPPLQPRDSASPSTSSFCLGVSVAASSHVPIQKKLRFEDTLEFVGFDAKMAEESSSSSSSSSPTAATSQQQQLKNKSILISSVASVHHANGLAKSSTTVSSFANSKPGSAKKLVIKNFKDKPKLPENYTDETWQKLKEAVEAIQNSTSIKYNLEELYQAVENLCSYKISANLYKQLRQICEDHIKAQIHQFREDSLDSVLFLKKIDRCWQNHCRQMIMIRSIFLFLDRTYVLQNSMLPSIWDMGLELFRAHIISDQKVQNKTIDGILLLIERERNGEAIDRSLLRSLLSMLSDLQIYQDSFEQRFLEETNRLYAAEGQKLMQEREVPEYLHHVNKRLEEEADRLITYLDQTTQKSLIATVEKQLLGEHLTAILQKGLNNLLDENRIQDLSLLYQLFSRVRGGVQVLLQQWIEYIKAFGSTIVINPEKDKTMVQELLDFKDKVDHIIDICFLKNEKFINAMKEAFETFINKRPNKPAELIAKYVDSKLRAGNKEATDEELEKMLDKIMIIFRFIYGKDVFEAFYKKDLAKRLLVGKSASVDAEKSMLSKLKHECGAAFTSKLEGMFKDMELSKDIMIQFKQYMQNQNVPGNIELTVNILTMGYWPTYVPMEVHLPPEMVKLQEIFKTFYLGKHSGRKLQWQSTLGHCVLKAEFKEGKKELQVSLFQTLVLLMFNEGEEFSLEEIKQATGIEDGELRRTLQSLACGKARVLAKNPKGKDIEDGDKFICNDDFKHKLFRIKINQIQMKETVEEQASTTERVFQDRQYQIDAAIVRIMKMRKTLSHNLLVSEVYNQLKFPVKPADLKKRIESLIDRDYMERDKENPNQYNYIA
Experimental: BT474 cells were infected with lentiviral shCUL4B, shCUL4A or control non-targeting shRNA, and selected for stable CUL4B^k/d or CUL4A^k/d cells upon treatment with puromycin. Following treatment with CPT (50 μM) for 1 hour, cells were replenished with CPT-free fresh medium and incubated at 37° C. for 30 minutes. Top1 degradation was assessed by immunoblotting with an anti-Top1 antibody. Levels of α-tubulin were measured as a loading control. B) Association of CUL4B with Top1 following CPT treatment. BT474 cells were treated with proteosome inhibitor MG132 (15 μM) for 3 hours, and were subjected to crosslinking with 0.2 mM Dithiobis[succinimidyl propionate](DSP) for the last 30 min at room temperature. Cell lysates were prepared, and immunoprecipitated with the anti-Top1 or anti-CUL4B antibodies, and then immunoblotted using antibodies against CUL4B or Top1, respectively. […] Top1 degradation was assessed by immunoblotting with the anti-Top1 antibody. Levels of α-tubulin were measured as a loading control. […] Statistical significance in cellular response to CPT between control BT474 cells and CUL4A^k/d or CUL4B^k/d cells were assessed by a two-tailed unpaired student t-test (***: p<0.001). […] Statistical significance in cellular response to camptothecin between control cells and CUL4A^k/d or CUL4B^k/d BT474 cells are assessed by student's t-test. […]

T47D cells = assay: XTT assay for cytotoxic response to camptothecin, T47D; format: cell-based, Human
BT474 xenograft tumors = format: in vivo, athymic Nu/J nude mice; settings: without topotecan administration; tumor burden and excised tumor weight
Experimental: FIG. 5. CUL4B inactivation sensitized BT474 xenograft tumors to topotecan. Stable TGL-BT474 cells (BT474 cells stably expressing GFP-luciferase reporter) were established by retroviral transduction and FACS sorting. The resulting TGL-BT474 cells were infected with recombinant lentiviruses expressing non-targeting shCtrl, shCUL4A or shCUL4B, followed by selection of infected cells with 4 μg/ml puromycine for one week. A) Knockdown of endogenous CUL4A and 4B were verified by immunoblotting. B, C) 1×10^7 of control, CUL4A^k/d, or CUL4B^k/d TGL-BT474 cells were injected subcutaneously in the right flank of each athymic Nu/J nude mice, treated (i.p.) with toptoecan at a dose of 5 mg/g on every 4th day, and tumor burden was measure by bioluminescent imaging. Statistical significance in tumor burden between control and CUL4A^k/d or CUL4B^k/d xenograph are assessed by a two-tailed unpaired student t-test (***: p<0.001). D) Growth rate of control, CUL4A^k/d and CUL4B^k/d BT474 cells in vitro. The same number of control, CUL4A^k/d and CUL4B^k/d BT474 cells were seeded to 96-well plates and cell proliferation was measured using the XTT Cell Proliferation Assay Kit. The data represent the mean value of fold change of cells. Bars indicate the S.E. of six independent experiments. Statistical significance in cellular rate between control cells and CUL4A^k/d or CUL4B^k/d cells are assessed by student's t-test. E-F) Growth rate of control, CUL4A^k/d and CUL4B^k/d TGL-BT474 xenograft in vivo. 1×10^7 of control, CUL4A^k/d or CUL4B^k/d TGL-BT474 cells were injected subcutaneously in the right flank of each mouse of athymic Nu/J nude mice, and tumor burden was measured by bioluminescent imaging (E). On the 22nd day, tumors were collected, and the weight of exercised tumors was measured after mice were sacrificed (F).
The effect of CUL4B knockdown on an organism's response to CPT treatment was tested in vivo by examining the sensitivity of BT474-CUL4B^k/d, BT474-CUL4A^k/d and control BT474 xenograft tumors to topotecan treatment. Topotecan, (S)-10-[(dimethylamino)methyl]-4-ethyl-4,9-dihydroxy-1H-pyrano[3′,4′:6,7]indolizino[1,2-b]quinoline-3,14(4H,12H)-dione monohydrochloride, is an FDA-approved Top1-directed chemotherapy for the treatment of ovarian, cervical and small cell lung cancer, under the trade name Hycamtin™. Nude mice bearing BT474 xenografts on dorsal skin were treated with topotecan every four (4) days for a period of 44 days. Prior to topotecan administration, the size of the xenograft tumors were identical (FIG. 5). Topotecan was then administered via intraperitoneal injection, and tumor mass was monitors by bioluminescent imaging in four day intervals. […] To rule out the possibility that the growth rate of xenografts were altered during the CUL4B inactivation process (treatment with shRNA) the tumor mass of the three xenograft groups were measured in the absence of topotecan treatment and the weight of the exercised xenograft tumors were analyzed.
Six week old Female athymic Nu/J nude mice were purchased from Jackson Labs. Mice were housed in laminar air-flow cabinets under specific pathogen-free conditions. Nude mice were inoculated with 0.36 mg 60-day-release 17-b-estradiol pellets (Innovative Research) 24 to 48 hours before implantation of BT-474 cells. 1×10^7 BT-474 cells in 50 ul DMEM medium and 300 ul diluted BD Matrigel™ Basement Membrane Matrix (BD Bioscience, Matrix: PBS is 2:1) were injected subcutaneously in the right flank of each mouse. Tumors were detected once every four days by an IVIS Imaging System (Caliper Life Sciences). When tumors were available to be detected, mice were initially treated with topotecan. Topotecan was administered intraperitoneally on every fourth day from the initiation of therapy at doses of 5 mg/g.
The IVIS Imaging System (Caliper life sciences) was used for bioluminescent image acquisition and analysis. […]

Compound | Association of Top1 with CUL4B (CUL4B-Top1 interaction) | Survival rate of CPT-treated cells (T47D cells; T47D cells with knockdown of CUL4A) | Cytotoxic killing by CPT (cell survival) (T47D cells; T47D cells with knockdown of CUL4B, CPT three days) | Growth rate of xenografts vs control (BT474 xenograft tumors)
CC[C@@]1(O)C(=O)OCc2c1cc1n(c2=O)Cc2cc3ccccc3nc2-1 [CPT, (S)-4-ethyl-4-hydroxy-1H-pyrano[3′,4′:6,7]indolizino[1,2-b]quinoline-3,14-(4H, 12H)-dione] | co-immunoprecipitated | no effect | sensitized | 
shCUL4B: lentiviral shRNA CUL4B sequence purchased from Sigma Aldrich, reduces CUL4B expression (CCGGGCAGAATTTAAAGAGGGTAAACTCGAGTTTACCCTCTTTAAATTCTGCTTTTT) |  |  |  | no significant difference
